# Target: T1, HDAC6 enzyme (Homo sapiens, UniProt Q9UBN7)
# T1 construct: HDAC6 enzyme prepared by transducing full length HDAC6 gene into Sf-9 insect cells; GST; purchased SignalChem; host or cells: Sf-9 insect cells
# T1 sequence (Q9UBN7 1-1215): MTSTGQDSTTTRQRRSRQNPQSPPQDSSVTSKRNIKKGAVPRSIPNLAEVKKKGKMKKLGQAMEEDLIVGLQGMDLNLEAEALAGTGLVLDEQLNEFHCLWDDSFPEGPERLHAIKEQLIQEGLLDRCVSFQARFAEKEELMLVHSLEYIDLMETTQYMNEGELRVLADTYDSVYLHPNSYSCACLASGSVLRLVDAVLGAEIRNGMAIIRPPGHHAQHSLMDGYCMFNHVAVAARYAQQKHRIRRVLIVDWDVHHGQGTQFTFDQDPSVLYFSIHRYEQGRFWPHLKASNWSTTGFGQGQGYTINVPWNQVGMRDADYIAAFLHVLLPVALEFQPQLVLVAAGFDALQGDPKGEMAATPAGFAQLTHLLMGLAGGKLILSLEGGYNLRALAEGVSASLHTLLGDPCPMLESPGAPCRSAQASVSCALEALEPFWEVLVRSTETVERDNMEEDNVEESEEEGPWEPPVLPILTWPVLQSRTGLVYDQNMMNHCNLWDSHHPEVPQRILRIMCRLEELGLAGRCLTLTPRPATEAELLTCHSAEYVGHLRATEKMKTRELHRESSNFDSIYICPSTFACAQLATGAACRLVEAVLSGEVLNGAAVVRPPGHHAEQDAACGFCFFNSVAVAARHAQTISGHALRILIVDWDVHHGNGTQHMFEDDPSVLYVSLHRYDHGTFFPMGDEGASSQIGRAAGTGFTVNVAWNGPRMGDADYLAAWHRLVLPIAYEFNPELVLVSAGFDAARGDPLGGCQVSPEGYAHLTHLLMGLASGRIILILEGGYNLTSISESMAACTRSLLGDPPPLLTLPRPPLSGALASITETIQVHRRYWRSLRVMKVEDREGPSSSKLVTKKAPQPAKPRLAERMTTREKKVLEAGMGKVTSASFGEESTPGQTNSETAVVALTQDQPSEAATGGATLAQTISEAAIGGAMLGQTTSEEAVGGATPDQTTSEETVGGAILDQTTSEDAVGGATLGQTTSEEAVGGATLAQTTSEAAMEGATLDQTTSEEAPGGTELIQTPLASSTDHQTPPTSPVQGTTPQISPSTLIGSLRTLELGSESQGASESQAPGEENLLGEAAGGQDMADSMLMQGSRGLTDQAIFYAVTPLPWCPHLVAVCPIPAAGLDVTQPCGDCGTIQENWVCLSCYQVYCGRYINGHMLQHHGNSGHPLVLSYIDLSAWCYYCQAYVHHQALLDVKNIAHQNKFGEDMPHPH
# Test: HDAC6 enzyme inhibitory assay (HDAC-Glo I/II Assay kit)
# Type: biochemical
# Conditions: wells without enzyme = 100% inhibition, read-out: HDAC6 inhibitory rate (%) (10 μM)
# Procedure: Experimental Example 1 HDAC6 Enzyme Inhibitory Assay
# HDAC6 enzyme prepared by transducing full length HDAC6 gene into Sf-9 insect cells and purifying by GST affinity column were purchased from SignalChem. Using this enzyme, HDAC6 enzyme inhibitory activity of the compound of the present invention were evaluated. Enzymes were used after preserved at −70° C. HDAC6 enzyme inhibitory activity of the compound of the present invention was measured using HDAC-Glo™ I/II Assay kit (Promega) according to the following experimental method. The test compound diluted with assay buffer (24 mM Tris-HCl (pH 7.5), 1 mM MgCl2, 0.35 mM KCl, 135 mM NaCl, 0.6 mM Glutathione, 0.01% Tween-20) was added to a 384-well plate by each 2 μL. Then, HDAC6 enzyme solution diluted with assay buffer was added thereto by each 4 μL, and the plate was incubated at room temperature for 60 min. After incubated, HDAC substrate-Developer solution prepared according to Promega protocol attached to the assay kit was added to the 384-well plate by each 2 μL, and the enzyme reaction was started. After reacting at room temperature for 20 min, luminescence level was measured using plate reader Envision (PerkinElmer). The inhibitory activity of each compound of Example was calculated as a relative activity value when luminescence level in wells without enzyme is considered as 100% inhibition.
row,Structure (SMILES),inhibition at 10 µM [%]
1,"O=C1c2cc(-c3nnc(C(F)F)o3)ccc2CN1[C@H](c1ccc(F)cc1)[C@@H](O)c1cccc(F)c1 (racemic) [Example 16, 6-[5-(difluoromethyl)-1,3,4-oxadiazol-2-yl]-2-[(1RS,2SR)-2-(3-fluorophenyl)-1-(4-fluorophenyl)-2-hydroxyethyl]-2,3-dihydro-1H-isoindol-1-one]",99
2,"O=C1c2cc(-c3nnc(C(F)F)o3)ccc2CN1[C@H](c1ccc(C(F)(F)F)nc1)[C@@H](O)c1ccccc1 (racemic) [Example 17, 6-[5-(difluoromethyl)-1,3,4-oxadiazol-2-yl]-2-{(1RS,2SR)-2-hydroxy-2-phenyl-1-[6-(trifluoromethyl)pyridin-3-yl]ethyl}-2,3-dihydro-1H-isoindol-1-one]",100
3,"O=C1c2cc(-c3nnc(C(F)F)o3)ccc2CN1[C@H](c1ccc(C(F)(F)F)nc1)[C@@H](O)c1ccc(F)cc1 (racemic) [Example 18, 6-[5-(difluoromethyl)-1,3,4-oxadiazol-2-yl]-2-{(1RS,2SR)-2-(4-fluorophenyl)-2-hydroxy-1-[6-(trifluoromethyl)pyridin-3-yl]ethyl}-2,3-dihydro-1H-isoindol-1-one]",99
4,"O=C1c2cc(-c3nnc(C(F)F)o3)ccc2CN1[C@H](c1ccc(F)cc1)[C@@H](O)C1CC1 (racemic) [Example 19, 2-[(1RS,2SR)-2-cyclopropyl-1-(4-fluorophenyl)-2-hydroxyethyl]-6-[5-(difluoromethyl)-1,3,4-oxadiazol-2-yl]-2,3-dihydro-1H-isoindol-1-one]",99
5,"O=C1c2cc(-c3nnc(C(F)F)o3)ccc2CN1[C@H](c1cccc(F)c1)[C@@H](O)c1ccccc1 (racemic) [Example 20, 6-[5-(difluoromethyl)-1,3,4-oxadiazol-2-yl]-2-[(1RS,2SR)-1-(3-fluorophenyl)-2-hydroxy-2-phenylethyl]-2,3-dihydro-1H-isoindol-1-one]",100
6,"O=C1c2cc(-c3nnc(C(F)F)o3)ccc2CN1[C@H](c1cccc(F)c1)[C@@H](O)c1ccc(F)cc1 (racemic) [Example 21, 6-[5-(difluoromethyl)-1,3,4-oxadiazol-2-yl]-2-[(1RS,2SR)-1-(3-fluorophenyl)-2-(4-fluorophenyl)-2-hydroxyethyl]-2,3-dihydro-1H-isoindol-1-one]",100
7,"O=C1c2cc(-c3nnc(C(F)F)o3)ccc2CN1[C@H](c1ccccc1)[C@@H](O)c1ccc(F)cc1 (racemic) [Example 22, 6-[5-(difluoromethyl)-1,3,4-oxadiazol-2-yl]-2-[(1RS,2SR)-2-(4-fluorophenyl)-2-hydroxy-1-phenylethyl]-2,3-dihydro-1H-isoindol-1-one]",99
8,"O=C1c2cc(-c3nnc(C(F)F)o3)ccc2CN1[C@H](c1ccccc1)[C@@H](O)c1cccc(F)c1 (racemic) [Example 23, 6-[5-(difluoromethyl)-1,3,4-oxadiazol-2-yl]-2-[(1RS,2SR)-2-(3-fluorophenyl)-2-hydroxy-1-phenylethyl]-2,3-dihydro-1H-isoindol-1-one]",100
9,"O=C1c2cc(-c3nnc(C(F)F)o3)ccc2CN1[C@H](c1ccccc1)[C@@H](O)C1CCC(F)(F)CC1 (racemic) [Example 25, 2-[(1RS,2SR)-2-(4,4-difluorocyclohexyl)-2-hydroxy-1-phenylethyl]-6-[5-(difluoromethyl)-1,3,4-oxadiazol-2-yl]-2,3-dihydro-1H-isoindol-1-one]",100
10,"O=C1c2cc(-c3nnc(C(F)F)o3)ccc2CN1[C@H](c1ccccc1F)[C@@H](O)c1ccccc1 (racemic) [Example 27, 6-[5-(difluoromethyl)-1,3,4-oxadiazol-2-yl]-2-[(1RS,2SR)-1-(2-fluorophenyl)-2-hydroxy-2-phenylethyl]-2,3-dihydro-1H-isoindol-1-one]",101
11,"O=C1c2cc(-c3nnc(C(F)F)o3)ccc2CN1[C@H](c1ccc(F)cc1)[C@@H](O)C1CCOCC1 (racemic) [Example 30, 6-[5-(difluoromethyl)-1,3,4-oxadiazol-2-yl]-2-[(1RS,2SR)-1-(4-fluorophenyl)-2-hydroxy-2-(oxan-4-yl)ethyl]-2,3-dihydro-1H-isoindol-1-one]",99
12,"N#Cc1cccc([C@H]([C@@H](O)c2ccccc2)N2Cc3ccc(-c4nnc(C(F)F)o4)cc3C2=O)c1 (racemic) [Example 40, 3-[(1RS,2SR)-1-{6-[5-(difluoromethyl)-1,3,4-oxadiazol-2-yl]-1-oxo-1,3-dihydro-2H-isoindol-2-yl}-2-hydroxy-2-phenylethyl]benzonitrile]",100

# Second part, the compound after the results:
row,inhibition at 10 µM [%],Structure (SMILES)
1,99,"O=C1c2cc(-c3nnc(C(F)F)o3)ccc2CN1[C@H](c1cc(F)c(F)c(F)c1)[C@@H](O)c1ccccn1 (racemic) [Example 15, 6-[5-(difluoromethyl)-1,3,4-oxadiazol-2-yl]-2-[(1RS,2RS)-2-hydroxy-2-(pyridin-2-yl)-1-(3,4,5-trifluorophenyl)ethyl]-2,3-dihydro-1H-isoindol-1-one]"
2,99,"O=C1c2cc(-c3nnc(C(F)F)o3)ccc2CN1[C@H](c1cccc(C(F)(F)F)c1)[C@@H](O)c1ccccn1 (racemic) [Example 24, 6-[5-(difluoromethyl)-1,3,4-oxadiazol-2-yl]-2-{(1RS,2RS)-2-hydroxy-2-(pyridin-2-yl)-1-[3-(trifluoromethyl)phenyl]ethyl}-2,3-dihydro-1H-isoindol-1-one]"
3,99,"O=C1c2cc(-c3nnc(C(F)F)o3)ccc2CN1[C@H](c1ccc(C(F)(F)F)cc1)[C@@H](O)c1ccccn1 (racemic) [Example 26, 6-[5-(difluoromethyl)-1,3,4-oxadiazol-2-yl]-2-{(1RS,2RS)-2-hydroxy-2-(pyridin-2-yl)-1-[4-(trifluoromethyl)phenyl]ethyl}-2,3-dihydro-1H-isoindol-1-one]"
4,99,"O=C1c2cc(-c3nnc(C(F)F)o3)ccc2CN1[C@H](c1ccccc1F)[C@@H](O)c1ccc(F)cc1 (racemic) [Example 28, 6-[5-(difluoromethyl)-1,3,4-oxadiazol-2-yl]-2-[(1RS,2SR)-1-(2-fluorophenyl)-2-(4-fluorophenyl)-2-hydroxyethyl]-2,3-dihydro-1H-isoindol-1-one]"
5,99,"O=C1c2cc(-c3nnc(C(F)F)o3)ccc2CN1[C@H](c1ccc(F)cc1)[C@@H](O)c1ccccc1F (racemic) [Example 29, 6-[5-(difluoromethyl)-1,3,4-oxadiazol-2-yl]-2-[(1RS,2SR)-2-(2-fluorophenyl)-1-(4-fluorophenyl)-2-hydroxyethyl]-2,3-dihydro-1H-isoindol-1-one]"
6,97,"O=C1c2cc(-c3nnc(C(F)F)o3)ccc2CN1[C@H](c1ccc(F)cc1F)[C@@H](O)c1ccccn1 (racemic) [Example 31, 6-[5-(difluoromethyl)-1,3,4-oxadiazol-2-yl]-2-[(1RS,2RS)-1-(2,4-difluorophenyl)-2-hydroxy-2-(pyridin-2-yl)ethyl]-2,3-dihydro-1H-isoindol-1-one]"
7,101,"O=C1c2cc(-c3nnc(C(F)F)o3)ccc2CN1[C@H](c1ccccc1C(F)(F)F)[C@@H](O)c1ccccn1 (racemic) [Example 39, 6-[5-(difluoromethyl)-1,3,4-oxadiazol-2-yl]-2-{(1RS,2RS)-2-hydroxy-2-(pyridin-2-yl)-1-[2-(trifluoromethyl)phenyl]ethyl}-2,3-dihydro-1H-isoindol-1-one]"

# From US12384770B2, “Heterocyclic compound” (Takeda Pharmaceutical Company Limited, priority 2019, dated 2025)
